Assay results: US20160333073A1, “DRUG DELIVERY SYSTEM” (UCL BUSINESS PLC, priority 2014, published 2016)
Read-outs that look alike come from different tables or passages of the source. Blank lines part the entries; values can stand above or below the compound they belong to. Square brackets hold non-standard residues; d marks the D form. Peptide text beside a SMILES is read from it. * marks the point of attachment. FITC = O=C1OC2(c3ccc(O)cc3Oc3cc(O)ccc32)c2ccc(NC(=S)*)cc21

How the values were obtained:
[1] = set-up: species or system Sprague Dawley rats; details: rat, in vivo
Protocol: FIG. 5. The retention of HABP35-F and RP2-F in rat vitreous after 48 hours. 2.5 μl of HABP35-F or RP2-F (250 nmole/ml) was injected into the vitreous of adult male Sprague Dawley rats. After 48 hours the eyes were removed. The cornea and lens was removed and the eye cup opened out into a Maltese cross. The vitreous and retina was photographed using an epifluorescent microscope (using equal exposure settings). A) Fluorescence of HABP35-F in the vitreous 48 hours following injection. B) Fluorescence of RP-F in the vitreous 48 hours following injection. C) Collage photograph showing fluorescence of HABP35-F in the vitreous 48 hours following injection.
FIG. 6. The in vivo diffusion study of HABP35-FP (higher line) and RP2-F (lower line) in rat vitreous over time. […] At different time points (0, 8, 24, 72, 168 hours) rats were sacrificed and the concentration of peptide in the vitreous was measured by fluorescence. […]
HABP-35-F was modified to protect the N-terminus from enzymatic degradation, through conversion of the terminal leucine to its D-configuration and by acetylation. […] The vitreous was extracted and peptide concentration measured by assessing fluorescence of the extracted vitreous. Three eyes were assessed, for each peptide, at each time point. In addition, the fluorescence of the vitreous was directly assessed on eye-cup flat mounts using an epifluorescent microscope.

[2] = assay type: binding
Protocol: (§1) FIG. 1. Harvard Fast Micro-Equilibrium Dialyzer. Each dialyzer is made of polytetrafluoroethylene (PTFE) and contains a 250 μl chamber on either side of a 100 kDa molecular weight cut off (MWCO) cellulose acetate membrane. The chambers were incubated at room temperature for up to 8 hours, and the diffusion from one chamber to the other was assessed. The side in which the peptide is placed is termed the donating chamber. The other side, towards which the peptide diffuses, is termed the receiving chamber.
FIG. 4. The diffusion of HABP35-F (left-hand column in each case) and RP2-F (right-hand column in each case) in hyaluronic acid, using a Harvard Fast Micro-Equilibrium Dialyzer. […] Concentration of HABP35-F or RP2-F, in the donating and receiving chambers, was measured at the 8-hour time point (n=3). The concentration gradient was then determined (difference between the concentration of the donating and receiving chambers). […]
In order to assess whether the retention in the donating chamber was due to an interaction with hyaluronic acid (HA), a solution of 2.5 mg/ml HA (in HEPES buffered saline) was added to each chamber, instead of rabbit vitreous. 20 nmole/ml of HABP35-F or RP2-F was added to the donating chamber and diffusion was measured over 8 hours. […] As a control, diffusion in HEPES buffered saline (HBS) alone was also assessed. […]

[3] = Degradation by proteases in rabbit vitreous (mass spectrometry / UPLC-MS)
Protocol: FIG. 10. […] UPLC-MS=ultra performance liquid chromatography-mass spectrometry.
FIG. 11. The effect of the protease inhibitors aprotinin (8 μM), bestatin (500 μM), E-64 (150 μM), and leupeptin (200 μM) on HABP35-F detection by UPLC-MS, after 6 hours incubation in rabbit vitreous. […] The experiment was performed three times (n=3). UPLC-MS=ultra performance liquid chromatography-mass spectrometry.
In order to assess degradation of HABP35-F by proteases present in rabbit vitreous, HABP35-F was incubated in rabbit vitreous for a period of 12 hours. Samples of HABP35-F in rabbit vitreous were taken at 0 and 12 hours and the mass spectrum traces for HABP35-F were compared.
In order to confirm that fragmentation occurred at the N-terminus (as opposed to the C-terminus), HABP35-B was incubated for 12 hours with rabbit vitreous.
In order to further confirm that HABP35-F was being enzymatically digested at the N-terminus, the proportion of HABP35-F that could be detected following incubation was assessed, with or without bestatin. Bestatin is an aminopeptidase inhibitor. Aminopeptidases catalyse the cleavage of amino acids from the N-terminus of peptides/proteins.
In order to optimise detection, further other protease inhibitors were added (aprotinin, bestatin, E-64, leupeptin).

[4] = HA binder screening ELISA on non-covalently bound HA; assay type: binding; details: for specific binding to non-covalently bound HA (A450 HA wells minus blank wells): n=3, compared with RP-B
Protocol: FIG. 7. […] Three ELISAs were performed for each concentration (n=3). Error bars represent standard deviation.
FIG. 8. […] Specific binding was obtained by subtracting A450 of blank wells from A450 of HA loaded wells, from the readings represented in FIG. 7. Three ELISAs were performed for each concentration (n=3). […] Error bars represent standard deviation.
Wells of a clear polystyrene Amine Surface 96 well ELISA plates (Corning Life Sciences Ltd) were loaded with 100 μl of 1 mg/ml HA sodium salt (Sigma-Aldrich Ltd) in 0.1 M 2-[N-morpholino] ethane sulfonic acid (MES, pH 4.5-5, Sigma-Aldrich Ltd). The wells were incubated for three hours at room temperature on an orbital shaker. All further incubations occurred at room temperature on an orbital shaker.
Wells were then washed three times with wash buffer (0.05% Tween 20 (Sigma-Aldrich Ltd) in phosphate buffered saline (PBS), pH 7.2-7.4). PBS was prepared to the following formula: 137 mM sodium chloride, 2.7 mM potassium chloride, 8.1 mM sodium phosphate dibasic, 1.5 mM potassium phosphate monobasic, pH 7.2-7.4, 0.22 μm filtered. 300 μl of 3% BSA (Sigma-Aldrich Ltd) in PBS was used to block each well. After 90 minutes incubation the wells were washed again three times. Different concentrations of biotinylated HA binding peptides, or control peptides, were then added, dissolved in 100 μl of 3% BSA PBS, and incubated for 1 hour. Three further washes were performed. 100 μl of streptavidin-horse radish peroxidase (S-HRP) (R&D Systems Ltd) (diluted to a working concentration of 1:200 in PBS) was added to each well, to detect any bound biotinylated peptide. The wells were incubated for 20 minutes, protected from light, followed by three further washes. 100 μl of tetramethylbenzidine (TMB)/H2O2, was added to each well. The wells were incubated for 10 minutes, protected from light. The reaction was stopped with 50 μl of 1 M H2SO4. Optical density of each well was read immediately, using a Modulus Microplate Reader set to 450 nm, One-way analysis of variance (ANOVA) was used to deter line statistical significance between groups (GraphPad Prism 5, GraphPad software Ltd).

[5] = assay type: binding, rabbit
Description: The affinity of the peptide may be defined in terms of its binding affinity to hyaluronic acid and/or collagen, and assessed by way of its diffusion from one chamber of a micro-equilibrium dialyser containing vitreous matter (e.g. hyaluronic acid) to another chamber containing vitreous matter in the absence of such a binding peptide. Thus, the concentration of peptide remaining in the initial chamber over time provides a quantitative parameter for assessing the amount of peptide remaining in the vitreous, this parameter being innately governed by peptide binding properties to hyaluronic acid. A comparison with the binding properties of the peptide of SEQ ID No. 1 allows the relative affinity to the determined (for example, see FIG. 3).
as §1, with “The side in which the peptide is placed is termed the donating chamber. The other side, towards which the peptide diffuses, is termed the receiving chamber.” left out
In order to study the diffusion properties of HABP35-F in vitreous, Fast Micro-Equilibrium Dialyzers (250 μl chamber volume) were purchased from Harvard Apparatus Ltd (UK). […] The rate at which HABP35-F and RP2-F diffused from one side of the dialyzer to the other was assessed over time. […]

Compound: LKQKIKHVVKLKVVVKLRSQLVKRKQN-GGGS-K(Biotin)-amide [HABP35-B]
- non-specific binding (blocked wells without HA) [4]: high non-specific binding
- specific binding to non-covalently bound HA (A450 HA wells minus blank wells) [4]: specific signal deteriorated at higher concentrations
- concentrations showing specific binding relative to HABP42-B or Pep1-B ([4]; non-covalently bound HA): ten-fold less
- degradation in rabbit vitreous (mass spectrum) ([3]; incubation in rabbit vitreous, 12 hours vs 0 hours): a new ion also appeared, containing a comparable loss in MW to that seen with HABP35-F

Compound: SATPASAPYPLAGGGSSATPASAPYPLAGGGS-K(FITC)-amide [RP2-F, reference compound]
- peptide concentration in / retention in the donating chamber ([5]; rabbit vitreous, 20 nmole/ml peptide in donating chamber, 100 kDa MWCO membrane, 2, 4, 6 and 8 hours, fluorescence): almost reaching equilibrium
- concentration gradient (concentration in donating chamber - concentration in receiving chamber) ([5]; rabbit vitreous, 2, 4, 6 and 8 hours): almost reached zero

Compound: GAHWQFNALTVR-GGGS-K(Biotin)-amide [Pep1-B, reference compound]
- specific binding to non-covalently bound HA (A450 HA wells minus blank wells) [4]: significantly greater specific binding at all concentrations tested

Compound: CC(C)C[C@H](NC(=O)[C@@H](O)[C@H](N)Cc1ccccc1)C(=O)O [Bestatin, reference compound]
- amount of HABP35-F detectable by UPLC-MS ([3]; HABP35-F 10 nmole/ml, 6 hours incubation in rabbit vitreous, bestatin 250 μM): significantly increased

The next lines start with results.

- fluorescence of peptide in the vitreous (epifluorescent microscopy) [1]: visibly more fluorescent peptide
- total amount of peptide in both chambers (degradation) during diffusion study [2]: minimal degradation
Compound: CC[C@H](C)[C@H](NC(=O)[C@H](CCCCN)NC(=O)[C@H](CCC(N)=O)NC(=O)[C@H](CCCCN)NC(=O)[C@@H](N)CC(C)C)C(=O)N[C@@H](CCCCN)C(=O)N[C@@H](Cc1c[nH]cn1)C(=O)N[C@H](C(=O)N[C@H](C(=O)N[C@@H](CCCCN)C(=O)N[C@@H](CC(C)C)C(=O)N[C@@H](CCCCN)C(=O)N[C@H](C(=O)N[C@H](C(=O)N[C@H](C(=O)N[C@@H](CCCCN)C(=O)N[C@@H](CC(C)C)C(=O)N[C@@H](CCCNC(=N)N)C(=O)N[C@@H](CO)C(=O)N[C@@H](CCC(N)=O)C(=O)N[C@@H](CC(C)C)C(=O)N[C@H](C(=O)N[C@@H](CCCCN)C(=O)N[C@@H](CCCNC(=N)N)C(=O)N[C@@H](CCCCN)C(=O)N[C@@H](CCC(N)=O)C(=O)N[C@@H](CC(N)=O)C(=O)NCC(=O)NCC(=O)NCC(=O)N[C@@H](CO)C(=O)N[C@@H](CCCCNC(=S)Nc1ccc2c(c1)C(=O)OC21c2ccc(O)cc2Oc2cc(O)ccc21)C(N)=O)C(C)C)C(C)C)C(C)C)C(C)C)C(C)C)C(C)C [HABP35-F] (H-LKQKIKHVVKLKVVVKLRSQLVKRKQNGGGSK(FITC)-NH2)
- degradation in rabbit vitreous (mass spectrum) [3]: this new molecule was HABP35-F minus the N-terminal leucine

- fluorescence of peptide in the vitreous (epifluorescent microscopy) [1]: increased retention
Compound: CC[C@H](C)[C@H](NC(=O)[C@H](CCCCN)NC(=O)[C@H](CCC(N)=O)NC(=O)[C@H](CCCCN)NC(=O)[C@@H](CC(C)C)NC(C)=O)C(=O)N[C@@H](CCCCN)C(=O)N[C@@H](Cc1c[nH]cn1)C(=O)N[C@H](C(=O)N[C@H](C(=O)N[C@@H](CCCCN)C(=O)N[C@@H](CC(C)C)C(=O)N[C@@H](CCCCN)C(=O)N[C@H](C(=O)N[C@H](C(=O)N[C@H](C(=O)N[C@@H](CCCCN)C(=O)N[C@@H](CC(C)C)C(=O)N[C@@H](CCCNC(=N)N)C(=O)N[C@@H](CO)C(=O)N[C@@H](CCC(N)=O)C(=O)N[C@@H](CC(C)C)C(=O)N[C@H](C(=O)N[C@@H](CCCCN)C(=O)N[C@@H](CCCNC(=N)N)C(=O)N[C@@H](CCCCN)C(=O)N[C@@H](CCC(N)=O)C(=O)N[C@@H](CC(N)=O)C(=O)NCC(=O)NCC(=O)NCC(=O)N[C@@H](CO)C(=O)N[C@@H](CCCCNC(=S)Nc1ccc2c(c1)C(=O)OC21c2ccc(O)cc2Oc2cc(O)ccc21)C(N)=O)C(C)C)C(C)C)C(C)C)C(C)C)C(C)C)C(C)C [HABP35-FP] (Ac-[dL]KQKIKHVVKLKVVVKLRSQLVKRKQNGGGSK(FITC)-NH2)
